Test results taken from paper PMC11187126, “Structure and dynamics of the pyroglutamylated RF-amide peptide QRFP receptor GPR103” (Nature Communications, 2024).
Read-outs that look alike come from different tables or passages of the source. No end group written: not given here.

Target: T1, GPR103 L14N-termA (Homo sapiens, UniProt Q96P65, L14A)
T1 construct: we used human full-length QRFPR-encoding plasmids; expressed in transfected cells; host or cells: HEK293 cells, pCAGGS vector
T1 sequence (Q96P65 1-431 L14A): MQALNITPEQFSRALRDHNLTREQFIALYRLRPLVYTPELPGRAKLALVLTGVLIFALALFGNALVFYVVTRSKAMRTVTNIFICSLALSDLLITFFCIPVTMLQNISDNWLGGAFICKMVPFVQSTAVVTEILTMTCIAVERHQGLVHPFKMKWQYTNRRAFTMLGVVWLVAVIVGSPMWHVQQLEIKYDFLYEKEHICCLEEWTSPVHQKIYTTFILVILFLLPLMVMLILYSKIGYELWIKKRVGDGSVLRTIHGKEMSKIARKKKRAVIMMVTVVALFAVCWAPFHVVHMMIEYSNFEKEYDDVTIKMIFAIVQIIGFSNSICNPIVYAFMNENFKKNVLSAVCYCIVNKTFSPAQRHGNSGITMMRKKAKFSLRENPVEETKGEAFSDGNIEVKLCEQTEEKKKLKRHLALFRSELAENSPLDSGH
Assay: TGFα shedding assay; Exp. level WT (1:5)
Format: cell-based
Experimental: For the TGFα shedding assay and the flow cytometry analysis, we used human full-length QRFPR-encoding plasmids. Specifically, GPR103 was N-terminally modified with an HA signal sequence followed by a FLAG epitope and then a flexible linker ([…]; the FLAG epitope is underlined) and inserted into the pCAGGS vector. Plasmid encoding GPR103 mutants were generated using Quickchange Site-Directed Mutagensis kit (Agilent).
The TGFα shedding assay was performed as described previously with minor modifications. Plasmid transfection was performed in a 6-well plate with a mixture of 500 ng (per well in a 6-well plate) AP-TGFα-encoding plasmid and 200 ng GPR103-encoding plasmid. After 1-day culture, the transfected cells were harvested by trypsinization, pelleted by centrifugation at 190 × g for 5 min, and washed once with 5 mM HEPES (pH 7.4)-containing Hank’s Balanced Salt Solution (HBSS). After centrifugation, the cells were resuspended in 8 mL of the HEPES-containing HBSS. The cell suspension was seeded in a 96-well culture plate (cell plate) at a volume of 90 μL (per well hereafter) and incubated in a 37 °C incubator with 5% CO2 for 30 min. […] After spinning the cell plates at 190 × g for 2 min, 80 μL of conditioned media was transferred to an empty 96-well plate (conditioned media (CM) plate). Then, 80 μL of AP reaction solution (10 mM p-nitrophenylphosphate (p-NPP), 120 mM Tris-HCl (pH 9.5), 40 mM NaCl, and 10 mM MgCl2) was dispensed into the cell plates and the CM plates. Absorbance at 405 nm of the plates was measured using a microplate reader (SpectraMax 340 PC384, Molecular Devices) before and after 1-h incubation at room temperature. Ligand-induced AP-TGFα release was calculated by subtracting spontaneous AP-TGFα release signal from ligand-induced AP-TGFα release signal. The AP-TGFα release signals were fitted to a four-parameter sigmoidal concentration–response curve, using the Prism 10 software (GraphPad Prism). For each replicate experiment, the pEC50 parameter (negative logarithmic values of EC50 values) of the individual GPR103 mutants were normalized to that of the wild-type GPR103 performed in parallel, and resulting ∆pEC50 values were used to denote ligand response activity of the mutants. […]
Exp. le vel: WT (1:5 0)Exp. le vel: WT (1:5 0)Exp. le vel: WT (1:5 0)Exp. le vel: WT (1:2 0)Exp. le vel: WT (1:2 0)Exp. le vel: WT (1:1 0) […]
L1 4N - t e r mA F2 5N - t e r mA I 2 6N - t e r mA Y 2 9N - t e r mA C 9 82 .5 7A T10 22 .6 1A Exp . l eve l: WT (1 :5)Exp . l evel : >WT (1 :1)Exp. le vel: WT (1:2 0)Exp. le vel: WT (1:2 0)Exp. le vel: WT (1:5 0)Exp . l eve l: WT (1 :1) […]
Exp. le vel: WT (1:1 0)Exp. le vel: WT (1:2 0) C 1 1 83 .2 5AExp. le vel: WT (1:5 0)Exp. le vel: WT (1:5 0)Exp. le vel: WT (1:2 0)Exp . l eve l: WT (1 :5) […]
Exp. le vel: WT (1:5 0)Exp. le vel: WT (1:1 0)Exp. le vel: WT (1:5 0) E203ECL2AExp . l evel : >WT (1 :1)Exp. le vel: WT (1:5 0)Exp. le vel: WT (1:5 0) […]
Exp . l eve l: WT (1 :1) F28Exp. le vel: WT (1:5 0) C 2 8 56 .4 7AExp. le vel: WT (1:2 0) WExp. le vel: WT (1:2 0) F28Exp. le vel: WT (1:5 0)Exp . l evel : >WT (1 :1) […]
Exp. le vel: WT (1:5 0)Exp. le vel: WT (1:5 0) C 3 2 77 .4 8AExp . l eve l: WT (1 :5)Exp . l evel : >WT (1 :1)Exp . l evel : >WT (1 :1) […]
Suppl eme nt ary Figure 1 | Mutational analysis of GPR103. […]
mutants. Data are presented as mean values ± SEM, normally n=3-5; dots), each performed in triplicate. b-d Cell-surface expression (b) and QRFP26-in-duced activation of GPR103 (c, d) were analyzed by the flow cytometry and the TGFα shedding assay, respectively. From the concentration–response curves (a), Emax (c) and ΔpEC50 (d) values relative to the wild type were calculated. Colors in the mutant bars indicate an expression level matching to that of titrated wild type. Statistical analyses were performed using the ordinary one-way ANOVA followed by Dunnett tests with the expression-matched […]

**Q.** TSGPLGNLAEELNGYSRKKGGFSFRF-NH2 [QRFP26] was tested. Which Emax (Exp. #1) did it give?
**A.** 105.09 % WT

**Q.** What about the Emax (Exp. #2) of the same substance?
**A.** 97.15 % WT

**Q.** What about the Emax (Exp. #3) of the same substance?
**A.** 104.38 % WT

**Q.** What about the Emax (mean, read-out: Emax) of the same substance?
**A.** 102%

**Q.** And the EC50 (n = 3)?
**A.** 7.59 nM

**Q.** And the Emax (n = 3, read-out: Emax)?
**A.** 106 ± 2.1%
